Source: the PolyMetriX glass transition set
± gives the standard deviation of the reports.

glass transition temperature [°C] | Structure (SMILES)
45.00 | *CC(*)C(=O)OCCCCCCOc1ccc(-c2ccc(C#N)cc2)cc1 (repeat unit)
-58.00 | *CCOCCOC(=O)C(CCCCCCC)C(=O)O* (repeat unit)
45.00 | *CC(F)(F)C(F)(F)C(F)(F)COC(=O)c1cccc(-c2cccc(C(=O)O*)c2)c1 (repeat unit)
29.00 | */C=C/C1CC(*)C(C(=O)OCCNC(C)(C)C)C1 (repeat unit)
55.00 | *CC(*)c1ccc(COCCC(F)(F)C(F)(F)C(F)(F)C(F)(F)C(F)(F)C(F)(F)C(F)(F)C(F)(F)F)cc1 (repeat unit)
97.00 | *CCN(*)C(=O)c1cc(F)c(F)c(F)c1F (repeat unit)
261.00 | *CC(*)(C)C(=O)OCC[N+](C)(C)CCCCS(=O)(=O)O (repeat unit)
17.00 | *CC(*)C(=O)OCCCOc1ccc(C(=O)OCCCC(F)(F)C(F)(F)C(F)(F)C(F)(F)C(F)(F)C(F)(F)F)cc1 (repeat unit)
140.00 | *c1ccc2c(c1)C(=O)N(c1ccc(OCCOCCOCCOCCOc3ccc(N4C(=O)c5ccc(C(*)(C(F)(F)F)C(F)(F)F)cc5C4=O)cc3)cc1)C2=O (repeat unit)
403.00 | *c1ccc2c(c1)C(=O)N(c1c(C)cc(-c3cc(C)c(N4C(=O)c5ccc(C(*)(C(F)(F)F)C(F)(F)F)cc5C4=O)c4ccccc34)c3ccccc13)C2=O (repeat unit)
298.00 ± 3.2 | *c1ccc2c(c1)C(=O)N(c1cccc(N3C(=O)c4ccc(C(*)(C(F)(F)F)C(F)(F)F)cc4C3=O)c1)C2=O (repeat unit)
50.50 | *CCCCCCCCCCOC(=O)c1ccc2cc(C(=O)O*)ccc2c1 (repeat unit)
278.00 | *Oc1ccc(C2(c3ccc(Oc4ccc(-c5ccc(NC(=O)c6cc(C(=O)Nc7ccc(-c8ccc(*)c(C(F)(F)F)c8)cc7)cc(C(C)(C)C)c6)cc5)cc4C(F)(F)F)cc3)c3ccccc3-c3ccccc32)cc1 (repeat unit)
136.00 | *CC(*)(C)C(=O)OCc1ccc2c(c1)c1ccccc1n2CC (repeat unit)
87.50 | *CC(*)(F)C(=O)OCCC(F)(F)C(F)(F)C(F)(F)C(F)(F)C(F)(F)C(F)(F)C(F)(F)C(F)(F)F (repeat unit)
180.00 | *Oc1ccc(NC(=O)CCCCCC(=O)Nc2ccc(*)cc2)cc1 (repeat unit)
55.00 | *CCCOC(=O)NCCCCCCNC(=O)O* (repeat unit)
87.00 | *CC(*)C(=O)OCCN(CC)c1ccc(/N=N/c2ccc([N+](=O)[O-])cc2Cl)cc1 (repeat unit)
33.00 | *CCCCOC(=O)NCC(F)(F)C(F)(F)C(F)(F)C(F)(F)CNC(=O)O* (repeat unit)
234.00 | *c1cc(C(c2ccc(OCCN(c3ccccc3)c3ccc(/C=C/C4=CC(=C(/C#N)S(C)(=O)=O)/CC(C)(C)C4)cc3)c(N3C(=O)c4ccc(Oc5ccc6c(c5)C(=O)N(*)C6=O)cc4C3=O)c2)(C(F)(F)F)C(F)(F)F)ccc1OCCN(c1ccccc1)c1ccc(/C=C/C2=CC(=C(/C#N)S(C)(=O)=O)/CC(C)(C)C2)cc1 (repeat unit)
225.00 | *c1ccc2c(c1)C(=O)N(C1CCC(CC3CCC(N4C(=O)c5ccc(C(*)(C(F)(F)F)C(F)(F)F)cc5C4=O)C(C)C3)CC1C)C2=O (repeat unit)

Continued, compound first:

Structure (SMILES) | glass transition temperature [°C]
*c1ccc(Cc2ccccc2-n2c(=O)c3cc4c(=O)n(*)c(=O)c4cc3c2=O)cc1 (repeat unit) | 356.50
*OCCOC(=O)CCCC(=O)OCCOc1nc(-c2ccc(OCCCC)cc2)nc(*)c1-c1ccc(OC)cc1 (repeat unit) | 46.00
*CC(*)C(=O)OC([2H])([2H])[2H] (repeat unit) | 35.00
*c1ccc(C(=O)OCCCCCCOc2ccc(/C=C/C(=O)/C=C/c3ccc(OCCCCCCOC(=O)c4ccc(-c5nnc(*)o5)cc4)cc3)cc2)cc1 (repeat unit) | 62.00
*Oc1cc(C(=O)c2ccccc2)c(Oc2ccc(*)cc2)cc1C(=O)c1ccccc1 (repeat unit) | 137.00
*Oc1cccc(N(c2ccccc2)c2ccc(-c3ccc(N(c4ccccc4)c4cccc(OC(=O)OCCOCCOC(*)=O)c4)cc3)cc2)c1 (repeat unit) | 113.00
*CCN(CCOC(=O)c1ccc(C(=O)O*)c(OC)c1)c1ccc(/N=N/c2ccc(-c3nc4ccc([N+](=O)[O-])cc4n3CC)cc2)cc1 (repeat unit) | 146.00
*C1C(=O)N(C2CCCCC2)C(=O)C1* (repeat unit) | 232.00
*c1ccc(-c2ccc(NC(=O)c3cccc(C(=O)Nc4ccc(-c5ccc(N6C(=O)c7ccc(-c8ccc9c(c8)C(=O)N(*)C9=O)cc7C6=O)cc5)cc4)c3)cc2)cc1 (repeat unit) | 230.00
*Nc1ccc(NC(=O)c2cc(-c3ccc(C(=O)OCC)c(C(*)=O)c3)ccc2C(=O)OCC)cc1 (repeat unit) | 231.70
*c1ccc(C(=O)c2ccc(-n3nc(-c4ccccc4)c4cc(Oc5ccc(C(C)(C)c6ccc(Oc7ccc8c(-c9ccccc9)nn(*)c(=O)c8c7)cc6)cc5)ccc4c3=O)cc2)cc1 (repeat unit) | 195.00
*C([2H])([2H])C(*)(C(=O)OC([2H])([2H])C([2H])([2H])[2H])C([2H])([2H])[2H] (repeat unit) | 94.00
*CCCCCCCCCC(=O)N* (repeat unit) [Poly(decano-10-lactam)] | 42.42 ± 0.8
*CCCOC(=O)OCCCCCCOC(=O)OCCCn1c(=O)c2cc3c(=O)n(*)c(=O)c3cc2c1=O (repeat unit) | 36.00
*O[Si](C)(C)O[Si](C)(C)Oc1ccc(-c2ccc(*)cc2)cc1 (repeat unit) | -4.00
*c1ccc(NC2CC(=O)N(c3ccc(-c4sc(-c5ccc(N6C(=O)CC(Nc7ccc(-c8nc(-c9ccc(-c%10nc(-c%11ccc([N+](=O)[O-])cc%11)c(-c%11ccc([N+](=O)[O-])cc%11)[nH]%10)cc9)[nH]c8*)cc7)C6=O)cc5)c(-c5ccccc5)c4-c4ccccc4)cc3)C2=O)cc1 (repeat unit) | 152.00
*C(=O)OCCCCOC(=O)c1ccc(NC(=O)c2ccc(N3C(=O)c4ccc(*)cc4C3=O)cc2)cc1 (repeat unit) | 130.00
*c1ccc(C(=O)c2ccc(N3C(=O)c4ccc(Oc5ccc(Oc6ccc7c(c6)C(=O)N(*)C7=O)cc5)cc4C3=O)cc2)cc1 (repeat unit) | 268.00
*Oc1ccc(C(CC)(c2ccccc2)c2ccc(OC(*)=O)cc2)cc1 (repeat unit) | 147.00
*c1ccc(-c2nc3ccccc3o2)c(*)c1 (repeat unit) | 229.00
*c1cccc(S(=O)(=O)c2cccc(N3C(=O)c4ccc(Oc5ccc(S(=O)(=O)c6ccc(Oc7ccc8c(c7)C(=O)N(*)C8=O)cc6)cc5)cc4C3=O)c2)c1 (repeat unit) | 205.00

Structure (SMILES) | glass transition temperature [°C]
*c1ccc(OC(=O)c2ccc(C(=O)Oc3ccc(C4(*)c5ccccc5Oc5ccccc54)cc3)cc2)cc1 (repeat unit) | 252.00
*CC(=O)Nc1ccc(Oc2ccc(NC(=O)CN3C(=O)c4ccc(C(=O)c5ccc6c(c5)C(=O)N(*)C6=O)cc4C3=O)cc2)cc1 (repeat unit) | 235.00
*CC(CCCCCCCCCCCC)COC(=O)NC(=O)c1ccc(C(=O)NC(=O)O*)cc1 (repeat unit) | 75.00
*c1cc2c(cc1C)-c1cc(C)c(N3C(=O)c4ccc(-c5ccc6c(c5)C(=O)N(*)C6=O)cc4C3=O)cc1S2(=O)=O (repeat unit) | 490.00
*Oc1ccc(OC(=O)c2ccc(-c3ccc(C(*)=O)cc3)cc2-c2ccccc2)cc1-c1ccccc1 (repeat unit) | 148.00
*Oc1cc(OC(=O)c2ccc(OCCCCCCCCCCCC)cc2)c(OC(=O)CCCC(*)=O)cc1OC(=O)c1ccc(OCCCCCCCCCCCC)cc1 (repeat unit) | 23.00
*CCCCCCCCCCC(=O)Nc1ccc(Oc2ccc(Oc3ccc(NC(=O)CCCCCCCCCCN4C(=O)c5ccc(C(=O)c6ccc7c(c6)C(=O)N(*)C7=O)cc5C4=O)cc3)cc2)cc1 (repeat unit) | 122.00
*/C=C/C1CC(*)C2C(=O)N(CCC)C(=O)C12 (repeat unit) | 139.00
*c1cccc(P(C)(=O)c2cccc(N3C(=O)c4ccc(NC(=O)OCCOc5ccc(C(C)(C)c6ccc(OCCOC(=O)Nc7ccc8c(c7)C(=O)N(*)C8=O)cc6)cc5)cc4C3=O)c2)c1 (repeat unit) | 211.00
*Cc1cccc(CNC(=O)c2cc(C(=O)N*)cc(C(C)(C)C)c2)c1 (repeat unit) | 192.00
*CCCCCCCCNC(=O)c1ccc(C(=O)N*)cc1 (repeat unit) | 123.00
*CC(*)(C#N)C(=O)OC(C)C (repeat unit) | 66.00
*CCC(C)C(*)C (repeat unit) | -26.00
*Nc1ccc(Cc2ccc(NC(=O)c3cc(C(*)=O)cc(N4C(=O)C5C6C=CC(C6)C5C4=O)c3)cc2)cc1 (repeat unit) | 303.00
*CC(*)c1ccc(COC(C)CC)cc1 (repeat unit) | 40.00
*CCCCCCNC(=O)CCCCCCCCCCCCCCC(=O)N* (repeat unit) | 40.00
*C1C2CC(C(=O)OCCc3ccc(N(c4ccccc4)c4cccc5ccccc45)cc3)C(C2)C1* (repeat unit) | 333.00
*CC(*)(F)C(=O)OCC(Cl)(Cl)Cl (repeat unit) | 127.00
*Oc1ccc(NC(=O)c2ccc([Si](c3ccccc3)(c3ccccc3)c3ccc(C(*)=O)cc3)cc2)cc1 (repeat unit) | 235.00
*/C=C(\C#N)C(=O)NC1CCCCC1NC(=O)/C(C#N)=C/c1ccc(/C=C/c2ccc(N(CC)Cc3cccc(CN(CC)c4ccc(/C=C/c5ccc(*)s5)cc4)c3)cc2)s1 (repeat unit) | 157.00
*CC/C=[C](/*)[Sn]([CH2]CCC)([CH2]CCC)[CH2]CCC (repeat unit) | -80.00
